Assay results: patent publication US20260224563A1, “CRYSTALLINE FORMS OF 6-(3-((5-CHLORO-2-METHOXYPYRIDINE)-3-SULFONAMIDO)-2,6-DIFLUOROPHENYL)-N-METHYLIMIDAZO[1,5-A]PYRAZINE-1-CARBOXAMIDE AND METHODS FOR USING THE SAME” (HIBERCELL, INC., priority 2023, published 2026)
Like-named read-outs stand apart in the source and are kept apart here.

Assay: Pharmacokinetics of HC-7366 in male and female beagle dogs following IV and oral administration of HC-7366-K (plasma and urine, LC-MS/MS)
Format: in vivo, Beagle Dog
Set-up: AUC(0-t)/D: unit not given here
Conditions: for AUC(0-inf) / AUC(0-t) / FPO / AUC(0-t)/D / t1/2: mean n = 3; for AUC(0-t): t = 48 h; for FPO: based on AUC(0-inf); for Cmax: suspension of Form III; for bioavailability: read-out: Mean oral bioavailability (FPO); for half-life: read-out: terminal half-life (t1/2) (converted); for Emesis: at 1 hour post dose
Protocol: The objective of this study was to characterize the pharmacokinetics of HC-7366 in male and female beagle dogs following intravenous (IV) and oral (PO) administration of the potassium salt of the compound of formula (I), which may be referred to in this Example as HC-7366-K.
The IV solution formulation of HC-7366-K contained “5% (v/v) DMSO and 95% (v/v) Captisol (20% w/v) in PBS (pH 7.4)”, and was administered […] dose at 0.5 mg free acid/kg.
The PO suspension formulation of HC-7366-K is a suspension of Form III of the potassium salt of the compound of formula (I) (see Example 6) and contained “0.5% (w/v) methylcellulose (400 cp) in water”, and was administered orally at 1 mg free acid/kg, 10 mg free acid/kg, 50 mg free acid/kg, 150 mg free acid/kg, respectively.
After dosing, blood samples were collected at various time points. Plasma and urine was harvested and analysed by LC-MS/MS to characterize the PK profiles of HC-7366.
HC-7366-K was stored at room temperature. The compound used in this study was HC-7366-K. All doses, concentrations and supporting data are expressed in terms of free acid. The molecular weight conversion factor from HC-7366-K to free acid was 1.11.
HC-7366-K was formulated as an IV solution at a target dose level of 0.5 mg/mL in “5% (v/v) DMSO and 95% (v/v) Captisol (20% w/v) in PBS (pH 7.4)”.
HC-7366-K was formulated as a PO suspension of Form III of the potassium salt of the compound of formula (I) (see Example 6) at a target dose concentration of 0.25 mg/mL, 2.5 mg/mL, 12.5 mg/mL and 37.5 mg/mL in “0.5% (w/v) methylcellulose (aq.) (400 cp) in water” respectively.
The dose was administered via intravenous and oral gavage at the target dose volume of 1, and 4 mL/kg, respectively. All animals had free access to water, were fasted overnight prior to dosing and fed approximately 2 hours after dosing. The IV dose and PO dose at 1 mg/kg were administered to the same dogs as a cross-over design. The PO dose was administered 10 days after the IV dose. The PO doses at 10, 50 and 150 mg/kg were administered to individual animals.
Following IV administration, blood samples (ca 0.3 mL) were collected from the venepuncture of peripheral veins except the dosing vein. Blood samples were collected pre dose and at 0.083 h, […], 0.5 h, 1 h, 2 h, 4 h, 8 h, […], 30 h, and 48 h post dose.
Following PO administration, blood samples (ca 0.3 mL) were collected from the venepuncture of peripheral veins. Blood samples were collected pre dose and at 0.25 h, 0.5 h, 1 h, 2 h, 4 h, 8 h, 24 h, 30 h, and 48 h post dose.
Blood samples were collected into tubes containing K2EDTA as anticoagulant. The acceptable time ranges for blood collection are shown below. […]. Samples were stored in a freezer set to maintain a temperature at or below −80° C. prior to analysis. The residual blood cells were discarded.
Urine samples were collected on cold packs into clean bottles and the cold packs were checked during the day and at each sampling interval. At the end of the collection interval, the volume of urine was recorded and then each sample was well mixed and maintained on wet ice throughout processing and then stored frozen at […]75±15° C. until analysis.
The plasma and urine concentration of HC-7366 was determined by protein precipitation with acetonitrile followed by liquid chromatography with mass spectrometric detection (LC MS/MS). Sample preparation was conducted by adding 50 uL plasma or 50 uL urine to 200 uL of acetonitrile containing dexamethasone as an analytical internal standard. There was no formal validation data to support the assay.
Calibration standards were prepared in male, female beagle dog plasma or urine using HC-7366 Free acid. Calibration standards were freshly prepared on the day of analysis.
Parameters were estimated using Phoenix (WinNonlin) pharmacokinetic software version 6.1.0 using a non-compartmental approach consistent with IV and PO routes of administration. […]

[1] = Female Beagle dog, IV 0.5 mg/kg, plasma
[2] = Female Beagle dog, PO 1 mg/kg, plasma
[3] = Female Beagle dog, PO 10 mg/kg, plasma
[4] = Female Beagle dog, PO 50 mg/kg, plasma
[5] = Female Beagle dog, PO 150 mg/kg
[6] = Female Beagle dog, PO 150 mg/kg, plasma
[7] = dog, plasma, female beagle dogs, oral 1 mg/kg
[8] = dog, Male Beagle dogs, IV 0.5 mg/kg, HC-7366 in plasma
[9] = dog, Male Beagle dogs, PO 1 mg/kg, HC-7366 in plasma
[10] = dog, Male Beagle dogs, PO 10 mg/kg, HC-7366 in plasma
[11] = dog, Male Beagle dogs, PO 50 mg/kg, HC-7366 in plasma
[12] = dog, Male Beagle dogs, PO 150 mg/kg, HC-7366 in plasma
[13] = plasma, female beagle dog, oral 10 mg/kg
[14] = plasma, female beagle dog, oral 50 mg/kg
[15] = plasma, female beagle dog, oral 150 mg/kg
[16] = plasma, male beagle dog, oral 1 mg/kg
[17] = plasma, male beagle dog, oral 10 mg/kg
[18] = plasma, male beagle dog, oral 50 mg/kg
[19] = plasma, male beagle dog, oral 150 mg/kg

- AUC(0-inf) [1]: 85.7 µg·h/mL
- AUC(0-t) [1]: 81.1 µg·h/mL
- FPO (Female Beagle dog, PO 1 mg/kg): 99%
- AUC(0-t)/D (Female Beagle dog, PO 1 mg/kg): 156383
- AUC(0-inf) [2]: 170 µg·h/mL
- t1/2 [2]: 13 h
- AUC(0-t) [2]: 156 µg·h/mL
- FPO (Female Beagle dog, PO 10 mg/kg): 84%
- AUC(0-t)/D (Female Beagle dog, PO 10 mg/kg): 126414
- AUC(0-inf) [3]: 1440 µg·h/mL
- t1/2 [3]: 14 h
- Tmax (Female Beagle dog, PO 10 mg/kg, range n = 3): 0.50 to 1.0 h
- AUC(0-t) [3]: 1260 µg·h/mL
- FPO (Female Beagle dog, PO 50 mg/kg): 63%
- AUC(0-t)/D (Female Beagle dog, PO 50 mg/kg): 97510
- AUC(0-inf) [4]: 5370 µg·h/mL
- t1/2 [4]: 14 h
- AUC(0-t) [4]: 4880 µg·h/mL
- FPO [5]: 32%
- AUC(0-t)/D [5]: 49629
- AUC(0-inf) [6]: 8260 µg·h/mL
- t1/2 [6]: 14 h
- AUC(0-t) [6]: 7440 µg·h/mL
- AUC(0-t)/D (Male Beagle dogs, IV 0.5 mg/kg): 155094
- FPO (Male Beagle dogs, PO 1 mg/kg): 73%
- AUC(0-t)/D (Male Beagle dogs, PO 1 mg/kg): 116097
- t1/2 (Male Beagle dogs, PO 10 mg/kg, HC-7366 in plasma): 15 h
- FPO (Male Beagle dogs, PO 10 mg/kg): 83%
- AUC(0-t)/D (Male Beagle dogs, PO 10 mg/kg): 126074
- t1/2 (Male Beagle dogs, PO 50 mg/kg, HC-7366 in plasma): 17 h
- FPO (Male Beagle dogs, PO 50 mg/kg): 58%
- AUC(0-t)/D (Male Beagle dogs, PO 50 mg/kg): 85797
- t1/2 (Male Beagle dogs, PO 150 mg/kg, HC-7366 in plasma): 11 h
- FPO (Male Beagle dogs, PO 150 mg/kg): 21%
- AUC(0-t)/D (Male Beagle dogs, PO 150 mg/kg): 34480
- Tmax (Male Beagle dogs, PO 150 mg/kg, range n = 3): 1.0 to 4.0 h
- Tmax (dog, plasma, Male Beagle dogs, PO 1 mg/kg, range n = 3, read-out: tmax): 0.25 to 0.5 h
- Tmax (dog, plasma, Male Beagle dogs, PO 10 mg/kg, range n = 3, read-out: tmax): 0.5 h
- Tmax (dog, plasma, Male Beagle dogs, PO 50 mg/kg, range n = 3, read-out: tmax): 0.5 to 1 h
- clearance (dog, plasma, female Beagle dogs, intravenous 0.5 mg/kg, read-out: Clearance (CL)): 5.84 mL/h/kg
- Vd (dog, plasma, female Beagle dogs, intravenous 0.5 mg/kg, read-out: volume of distribution at steady state (Vss)): 0.084 L/kg
- Cmax [7]: 10.7 µg/mL
- bioavailability [7]: 99%
- half-life [7]: 13 h
- AUC(0-inf) [8]: 85.6 µg·h/mL
- AUC(0-t) [8]: 77.5 µg·h/mL
- AUC(0-inf) [9]: 123 µg·h/mL
- AUC(0-t) [9]: 116 µg·h/mL
- AUC(0-inf) [10]: 1420 µg·h/mL
- AUC(0-t) [10]: 1260 µg·h/mL
- AUC(0-inf) [11]: 4930 µg·h/mL
- AUC(0-t) [11]: 4290 µg·h/mL
- AUC(0-inf) [12]: 5470 µg·h/mL
- AUC(0-t) [12]: 5170 µg·h/mL
- half-life (dog, female Beagle dogs, intravenous 0.5 mg/kg, plasma HC-7366, mean n=3): 12 h
- half-life (dog, male beagle dogs, intravenous 0.5 mg/kg, plasma HC-7366, mean n=3): 14 h
- gender differences in the PK parameters (male versus female beagle dogs): no notable gender differences
- Tmax (plasma, Female Beagle dog, PO 1 mg/kg, range n = 3, read-out: tmax): 1 to 2 h
- Tmax (plasma, Female Beagle dog, PO 50 mg/kg, range n = 3, read-out: tmax): 2 to 4 h
- Tmax (plasma, Female Beagle dog, PO 150 mg/kg, range n = 3, read-out: tmax): 0.5 to 1 h
- Cmax [13]: 87 µg/mL
- Tmax (plasma, female beagle dog, oral 10 mg/kg, three animals, read-out: time post dose at which Cmax was observed (Tmax)): 0.5 to 1 h
- bioavailability [13]: 84%
- half-life [13]: 14 h
- Cmax [14]: 246 µg/mL
- bioavailability [14]: 63%
- half-life [14]: 14 h
- Cmax [15]: 350 µg/mL
- bioavailability [15]: 32%
- half-life [15]: 14 h
- Cmax [16]: 10.2 µg/mL
- bioavailability [16]: 73%
- half-life [16]: 12 h
- Cmax [17]: 94.3 µg/mL
- bioavailability [17]: 83%
- half-life [17]: 15 h
- Cmax [18]: 227 µg/mL
- bioavailability [18]: 58%
- half-life [18]: 17 h
- Cmax [19]: 280 µg/mL
- Tmax (plasma, male beagle dog, oral 150 mg/kg, three animals, read-out: time post dose at which Cmax was observed (Tmax)): 1 to 4 h
- bioavailability [19]: 21%
- half-life [19]: 11 h
Structure (SMILES): CNC(=O)c1ncn2cc(-c3c(F)ccc(NS(=O)(=O)c4cc(Cl)cnc4OC)c3F)ncc12 [HC-7366-K, 6-(3-((5-chloro-2-methoxypyridine)-3-sulfonamido)-2,6-difluorophenyl)-N-methylimidazo[1,5-a]pyrazine-1-carboxamide]
- Emesis (female beagle dog, oral 150 mg/kg): Emesis was observed
- Emesis (male beagle dog, oral 150 mg/kg): Emesis was observed
- dose proportionality of AUC (AUC/D values) (oral, between 1 and 50 mg/kg, beagle dogs): generally increased in proportional to dose level
